From US11154589B2, “Antimicrobial composition combinations comprising star shaped peptide polymers” (The University of Melbourne, priority 2016, dated 2021)
Converted amounts (≈) assume the structure as drawn. Like-named read-outs stand apart in the source and are kept apart here. Marks after values point to notes of the source that are not given here.

Assays:
[1] = test system: Acinetobacter baumannii (A. baumannii, ATCC 19606); assay: MBC determination (in vitro antimicrobial experiment, CFU counting); assay type: cell-based; details: compound alone, A. baumannii (wild-type)
Protocol: (§1) Freeze-dried cultures of Escherichia coli (E. coli, ATCC 25922), Klebsiella pneumoniae (K. pneumoniae, ATCC 13883), Pseudomonas aeruginosa (P. aeruginosa, ATCC 47085), Acinetobacter baumannii (A. baumannii, ATCC 19606), colistin and multidrug-resistant (CMDR) A. baumannii (FADDI-AB156), and CMDR P. aeruginosa (FADDI-PA067) were grown aerobically and maintained by passage at ambient temperature on horse blood agar (10% v/v defibrinated horse blood, 4.4% w/v Oxoid Blood Agar Base No. 2). Overnight cultures were made from transferring a colony (ca. half a loop) from the agar plates to culture tubes containing sterilized Luria-Bertani broth (LB, 1% w/v Bacto™ Tryptone, 1% w/v NaCl, 0.5% w/v Oxoid Yeast Extract) (20 mL). Bacterial cultures were incubated overnight at 37° C. with aeration and without agitation, with the exception of the two P. aeruginosa strains (ATCC 47085 and FADDI-PA067) which were cultured at 37° C. with aeration and agitation (150 rpm). On the next day, for E. coli, K. pneumonia, P. aeruginosa (ATCC 47085), and CMDR P. aeruginosa (FADDI-PA067), small aliquots (i.e., 0.5-3 mL) were taken from the culture tubes, further diluted with LB (20 mL), and incubated for 3-4 h at 37° C. with aeration before use. All bacterial cultures were cultured without agitation, with the exception of P. aeruginosa ATCC 47085 and FADDI-PA067 which were cultured with shaking at 150 rpm. For A. baumannii, an aliquot of 0.5 mL was taken from the overnight culture tube, further diluted with LB (200 mL), and incubated overnight at 37° C. with aeration before use.
(§2) The 96-well plate was then incubated at 37° C. for 1.5 or 3 h. For each well, microbial solution was diluted with saline (0.9% NaCl solution) using an appropriate dilution factor and placed on a LB agar plate (LB broth containing 15 g/L Oxoid Blood Agar Base No. 2). For E. coli, K. pneumoniae, and A. Baumannii (ATCC 19606 and FADDI-AB156), the agar plates were incubated overnight at room temperature, and then at 37° C. with aeration for 2 h. For P. Aeruginosa (ATCC 47085 and FADDI-PA067), the agar plates were incubated at 37° C. with aeration. The number of colony-forming units (CFU) was counted and expressed as CFU/mL. Positive controls consisting of cells without any treatment were used. […] A minimum of two independent experiments (biological replicates) of the assay were conducted and three technical replicates were used in each experiment. Data is expressed as mean±standard deviation (SD) and analysed using student's t-test.

[2] = test system: Escherichia coli (E. coli, ATCC 25922); assay: as above; assay type: cell-based
Protocol: as §1, §2

[3] = test system: Klebsiella pneumoniae (K. pneumoniae, ATCC 13883); assay: as above; assay type: cell-based
Protocol: as §1, §2

[4] = test system: Pseudomonas aeruginosa (P. aeruginosa, ATCC 47085); assay: as above; assay type: cell-based; details: compound alone, P. aeruginosa (wild-type)
Protocol: as §1, §2

[5] = test system: CMDR P. aeruginosa (FADDI-PA067); assay: as above; assay type: cell-based, Pseudomonas aeruginosa; details: compound alone
Protocol: as §1, §2

[6] = test system: CMDR A. baumannii (FADDI-AB156); assay: as above; assay type: cell-based, Acinetobacter baumannii; details: compound alone
Protocol: as §1, §2

[7] = test system: Acinetobacter baumannii (A. baumannii, ATCC 19606); assay: S16-antibiotic co-administration, synergy by Bliss Independence and HSA models; assay type: cell-based; details: for Interaction with S16 as evaluated by the Bliss Independence and HSA models (in words) / Antimicrobial activity on co-administration with S16 compared to compounds alone (log change in CFU/mL): A. baumannii wild-type; for Interaction with S16 as evaluated by the Bliss Independence and HSA models (in words): 3 h time point; for Antimicrobial activity on co-administration with S16 compared to compounds alone (log change in CFU/mL): all compounds at MBC50, t=3 h; for MBC in combination / Synergistic? (Yes/No) Bliss* / Synergistic? (Yes/No) HAS*: A. baumannii, 3 h; for MBC in combination: S16 and antibiotic co-administered, each at MBC50; for Synergistic? (Yes/No) Bliss* / Synergistic? (Yes/No) HAS*: antibiotic in combination with S16; for Synergistic? (Yes/No) Bliss*: Bliss Independence model; for Synergistic? (Yes/No) HAS*: Highest Single Agent model
Protocol: as §2
(§3) The Bliss Independence and HSA models were used to calculate drug synergism. […] Biotechnol. 31, 160-165 (2013). With the Bliss Independence model, synergism was calculated using the formula, BICAB=A+B−AB (1), where A and B are the effects of the two drugs in isolation and BICAB is the combined effect of the two drugs as predicted by the Bliss Independence model. […] In the HSA model, if CAB is greater than the greater of A and B, CAB>max(A, B), synergy is observed. The quantitative effect of the compounds when administered alone (i.e., A and B) or in combination (i.e., CAB) was defined as the fractional reduction of the population, R=1−CFUt/CFU0, where CFUt is the CFU/mL measured after treatment, and CFU0 is the CFU/mL measured before treatment.

[8] = test system: Escherichia coli (E. coli, ATCC 25922); assay: as above; assay type: cell-based; details: for MBC in combination: S16 and antibiotic co-administered, each at MBC50, 3 h; for Antimicrobial activity on co-administration with S16 compared to compounds alone (log change in CFU/mL): all compounds at MBC50, t=3 h; for Synergistic? (Yes/No) Bliss* / Synergistic? (Yes/No) HAS*: antibiotic in combination with S16, 3 h; for Synergistic? (Yes/No) Bliss*: Bliss Independence model; for Synergistic? (Yes/No) HAS*: Highest Single Agent model
Protocol: as §2, §3

[9] = test system: Klebsiella pneumoniae (K. pneumoniae, ATCC 13883); assay: as above; assay type: cell-based; details: for MBC in combination: S16 and antibiotic co-administered, each at MBC50, 3 h; for Antimicrobial activity on co-administration with S16 compared to compounds alone (log change in CFU/mL): all compounds at MBC50, t=3 h; for Synergistic? (Yes/No) Bliss* / Synergistic? (Yes/No) HAS*: antibiotic in combination with S16, 3 h; for Synergistic? (Yes/No) Bliss*: Bliss Independence model; for Synergistic? (Yes/No) HAS*: Highest Single Agent model
Protocol: as §2, §3

[10] = test system: Pseudomonas aeruginosa (P. aeruginosa, ATCC 47085); assay: as above; assay type: cell-based; details: for Antimicrobial activity on co-administration with S16 compared to compounds alone (log change in CFU/mL): all compounds at MBC50; for Fold reduction of MBC: MBCeff with S16 versus MBC alone; for MBC in combination: S16 and antibiotic co-administered, each at MBC50; for Synergistic? (Yes/No) Bliss* / Synergistic? (Yes/No) HAS*: antibiotic in combination with S16; for Synergistic? (Yes/No) Bliss*: Bliss Independence model; for Synergistic? (Yes/No) HAS*: Highest Single Agent model
Protocol: as §2, §3

[11] = test system: CMDR A. baumannii (FADDI-AB156); assay: as above; assay type: cell-based, Acinetobacter baumannii
Protocol: as §2, §3

[12] = test system: CMDR A. baumannii (FADDI-AB156); assay: Antibiogram of CMDR A. baumannii (MIC); assay type: cell-based, Acinetobacter baumannii; details: CMDR A. baumannii (FADDI-AB156); for MIC: read-out: MIC; for Susceptibility: interpreted by CLSI resistant breakpoints
[13] = test system: CMDR P. aeruginosa (FADDI-PA067); assay: Antibiogram of CMDR P. aeruginosa; assay type: cell-based, Pseudomonas aeruginosa; details: interpreted by CLSI resistant breakpoints

Compound	MBC [4]	MBC [5]	Interaction with S16 as evaluated by the Bliss Independence and HSA models (in words) [7]	Antimicrobial activity on co-administration with S16 compared to compounds alone (log change in CFU/mL) [7]	MBC in combination [7]	Synergistic? (Yes/No) Bliss* [7]	Synergistic? (Yes/No) HAS* [7]	MBC in combination [8]	Antimicrobial activity on co-administration with S16 compared to compounds alone (log change in CFU/mL) [8]	Synergistic? (Yes/No) Bliss* [8]	Synergistic? (Yes/No) HAS* [8]	MBC in combination [9]	Antimicrobial activity on co-administration with S16 compared to compounds alone (log change in CFU/mL) [9]	Synergistic? (Yes/No) Bliss* [9]	Synergistic? (Yes/No) HAS* [9]	Antimicrobial activity on co-administration with S16 compared to compounds alone (log change in CFU/mL) ([10]; P. aeruginosa wild-type, t=3 h)	MBC in combination ([10]; P. aeruginosa, 3 h)	Synergistic? (Yes/No) Bliss* ([10]; P. aeruginosa, 3 h)	Synergistic? (Yes/No) HAS* ([10]; P. aeruginosa, 3 h)	Susceptibility [12]	other results
CC1(C)S[C@@H]2[C@H](NC(=O)[C@H](N)c3ccccc3)C(=O)N2[C@H]1C(=O)O [Amp, ampicillin]	>5860.0 µM	<1.4 µM	additive	significantly enhanced antimicrobial activity	1465.4 µM	No	No	5.7 µM	significantly enhanced antimicrobial activity	No	No	327.6 µM	significantly enhanced antimicrobial activity	Yes	Yes	significantly enhanced antimicrobial activity	2930.7 µM	Yes	Yes	Resistant	MBC ([1]; Acinetobacter baumannii, ATCC19606): > 2930 µM; MBC ([2]; Escherichia coli, ATCC25922, compound alone): 9.4 µM (≈ 3.28 µg/mL); MBC ([3]; Klebsiella pneumoniae, ATCC13883, compound alone): 655 µM (≈ 229 µg/mL); MBC ([4]; Pseudomonas aeruginosa, ATCC47085): > 5860 µM; MBC ([5]; Pseudomonas aeruginosa): < 1.4 µM; MBC ([6]; Acinetobacter baumannii): > 2930 µM; Interaction with S16 as evaluated by the Bliss Independence and HSA models (in words) ([8]; 3 h time point): additive; Interaction with S16 as evaluated by the Bliss Independence and HSA models (in words) ([9]; 3 h time point): synergistic; Interaction with S16 as evaluated by the Bliss Independence and HSA models (in words) ([10]; P. aeruginosa wild-type, 3 h time point): synergistic; Fold reduction of MBC ([10]; P. aeruginosa): > 16 fold; Fold reduction of MBC ([10]; P. aeruginosa, listed as ampicillin): more than 16 fold; reduction (printed in parentheses beside fold reduction of MBC) ([10]; P. aeruginosa, antibiotic co-administered with S16): 99.9%; MBC in combination, MBCeff ([10]; P. aeruginosa, co-administered S16 (at MBC50) and antibiotic, antibiotic concentration giving at least 2-log reduction in CFU/mL, 3 h): 366.3^a μM; Interaction with S16 as evaluated by the Bliss Independence and HSA models (in words) ([11]; 3 h time point): synergistic; MBC in combination ([11]; S16 and antibiotic co-administered, each at MBC50, 3 h): 2930.7 µM; Antimicrobial activity on co-administration with S16 compared to compounds alone (log change in CFU/mL) ([11]; all compounds at MBC50, t=3 h): Enhanced antimicrobial activity; Synergistic? (Yes/No) Bliss* ([11]; antibiotic in combination with S16, 3 h, Bliss Independence model): Yes; Synergistic? (Yes/No) HAS* ([11]; antibiotic in combination with S16, 3 h, Highest Single Agent model): Yes; MIC ([12]; Acinetobacter baumannii): > 2930 µM
gentamicin	2.4 µM	<1.1 µM	non-synergistic	did not result in any significant change in activity	6.0 µM	Yes	No	2.2 µM	enhanced efficacy	Yes	Yes	1.1 µM	enhanced efficacy	Yes	Yes	did not result in any significant change in activity	1.2 µM	No	No	Resistant	MBC [1]: 12.1 µM; MBC ([2]; compound alone): 3.7 µM; MBC ([3]; compound alone): 2.2 µM; MBC [6]: >1104.5 µM; Antimicrobial activity on co-administration with S16 compared to compounds alone (log change in CFU/mL) ([10]; P. aeruginosa, t=1.5 h): enhancement in efficacy; Susceptibility [13]: Resistant; MIC [12]: >1104.5 µM
